Data reported in PubChem BioAssay (NCI).
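Briefly, cells in 96-well plates were exposed to five compound concentrations for 48 h, and endpoints were estimated by linear interpolation. Definition used: TGI = concentration required for complete inhibition of growth.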

Tests used:
Assay in all cases: inhibition of tumour cell growth, NCI panel, 48 h
786-0 renal = system: 786-0 renal
A498 renal = system: A498 renal
A549 NSCLC = system: A549 NSCLC
ACHN renal = system: ACHN renal
BT-549 breast = system: BT-549 breast
CAKI-1 renal = system: CAKI-1 renal
COLO 205 colon = system: COLO 205 colon
DU-145 prostate = system: DU-145 prostate
EKVX NSCLC = system: EKVX NSCLC
HCC-2998 colon = system: HCC-2998 colon
HCT-116 colon = system: HCT-116 colon
HCT-15 colon = system: HCT-15 colon
HL-60(TB) leukemia = system: HL-60(TB) leukemia
HOP-62 NSCLC = system: HOP-62 NSCLC
HOP-92 NSCLC = system: HOP-92 NSCLC
HS 578T breast = system: HS 578T breast
HT29 colon = system: HT29 colon
IGROV1 ovarian = system: IGROV1 ovarian
K-562 leukemia = system: K-562 leukemia
KM12 colon = system: KM12 colon
LOX IMVI melanoma = system: LOX IMVI melanoma
M14 melanoma = system: M14 melanoma
MALME-3M melanoma = system: MALME-3M melanoma
MCF7 breast = system: MCF7 breast
MDA-MB-231 breast = system: MDA-MB-231 breast
MDA-MB-435 = system: MDA-MB-435
MDA-N = system: MDA-N
MOLT-4 leukemia = system: MOLT-4 leukemia
NCI-H23 lung = system: NCI-H23 lung
NCI-H460 lung = system: NCI-H460 lung
NCI-H522 lung = system: NCI-H522 lung
NCI/ADR-RES ovarian = system: NCI/ADR-RES ovarian
OVCAR-3 ovarian = system: OVCAR-3 ovarian
OVCAR-4 ovarian = system: OVCAR-4 ovarian
OVCAR-5 ovarian = system: OVCAR-5 ovarian
OVCAR-8 ovarian = system: OVCAR-8 ovarian
PC-3 prostate = system: PC-3 prostate
RPMI-8226 leukemia = system: RPMI-8226 leukemia
RXF 393 renal = system: RXF 393 renal
SF-268 CNS = system: SF-268 CNS
SF-539 CNS = system: SF-539 CNS
SK-MEL-2 melanoma = system: SK-MEL-2 melanoma
SK-MEL-28 melanoma = system: SK-MEL-28 melanoma
SK-MEL-5 melanoma = system: SK-MEL-5 melanoma
SK-OV-3 ovarian = system: SK-OV-3 ovarian
SN12C renal = system: SN12C renal
SNB-19 CNS = system: SNB-19 CNS
SNB-75 CNS = system: SNB-75 CNS
SR leukemia = system: SR leukemia
SW-620 colon = system: SW-620 colon
T-47D breast = system: T-47D breast
TK-10 renal = system: TK-10 renal
U251 CNS = system: U251 CNS
UACC-257 melanoma = system: UACC-257 melanoma
UACC-62 melanoma = system: UACC-62 melanoma
UO-31 renal = system: UO-31 renal
CCRF-CEM leukemia = system: CCRF-CEM leukemia
NCI-H226 lung = system: NCI-H226 lung
SF-295 CNS = system: SF-295 CNS

With `Oc1ccc(Cl)cc1-c1cc(-c2ccccc2)nc(NCN2CCCCC2)n1` the TGI (786-0 renal) was greater than 100 µM, the TGI (A498 renal) was greater than 100 µM and the TGI (A549 NSCLC) was greater than 100 µM. For the same compound, the TGI (ACHN renal) was greater than 100 µM, the TGI (BT-549 breast) was greater than 100 µM and the TGI (CAKI-1 renal) was greater than 100 µM. It also gave a TGI (COLO 205 colon) greater than 100 µM, a TGI (DU-145 prostate) greater than 100 µM and a TGI (EKVX NSCLC) greater than 100 µM. For the same compound, the TGI (HCC-2998 colon) was greater than 100 µM, the TGI (HCT-116 colon) was greater than 100 µM and the TGI (HCT-15 colon) was greater than 100 µM. For the same compound, the TGI (HL-60(TB) leukemia) was greater than 100 µM, the TGI (HOP-62 NSCLC) was greater than 100 µM and the TGI (HOP-92 NSCLC) was greater than 100 µM. For the same compound, the TGI (HS 578T breast) was greater than 100 µM, the TGI (HT29 colon) was greater than 100 µM and the TGI (IGROV1 ovarian) was greater than 100 µM. For the same compound, the TGI (K-562 leukemia) was greater than 100 µM, the TGI (KM12 colon) was greater than 100 µM and the TGI (LOX IMVI melanoma) was greater than 100 µM. The TGI (M14 melanoma) was greater than 100 µM, the TGI (MALME-3M melanoma) was greater than 100 µM and the TGI (MCF7 breast) was greater than 100 µM. For the same compound, the TGI (MDA-MB-231 breast) was greater than 100 µM, the TGI (MDA-MB-435) was greater than 100 µM and the TGI (MDA-N) was greater than 100 µM. It also gave a TGI (MOLT-4 leukemia) greater than 100 µM, a TGI (NCI-H23 lung) greater than 100 µM and a TGI (NCI-H460 lung) greater than 100 µM. It also gave a TGI (NCI-H522 lung) greater than 100 µM, a TGI (NCI/ADR-RES ovarian) greater than 100 µM and a TGI (OVCAR-3 ovarian) greater than 100 µM. It also gave a TGI (OVCAR-4 ovarian) greater than 100 µM, a TGI (OVCAR-5 ovarian) greater than 100 µM and a TGI (OVCAR-8 ovarian) greater than 100 µM. The TGI (PC-3 prostate) was greater than 100 µM, the TGI (RPMI-8226 leukemia) was greater than 100 µM and the TGI (RXF 393 renal) was greater than 100 µM. For the same compound, the TGI (SF-268 CNS) was greater than 100 µM, the TGI (SF-539 CNS) was greater than 100 µM and the TGI (SK-MEL-2 melanoma) was greater than 100 µM. For the same compound, the TGI (SK-MEL-28 melanoma) was greater than 100 µM, the TGI (SK-MEL-5 melanoma) was greater than 100 µM and the TGI (SK-OV-3 ovarian) was greater than 100 µM. It also gave a TGI (SN12C renal) greater than 100 µM, a TGI (SNB-19 CNS) greater than 100 µM and a TGI (SNB-75 CNS) greater than 100 µM. It also gave a TGI (SR leukemia) greater than 100 µM, a TGI (SW-620 colon) greater than 100 µM and a TGI (T-47D breast) greater than 100 µM. The TGI (TK-10 renal) was greater than 100 µM, the TGI (U251 CNS) was greater than 100 µM and the TGI (UACC-257 melanoma) was greater than 100 µM. The TGI (UACC-62 melanoma) was greater than 100 µM and the TGI (UO-31 renal) was greater than 100 µM.
`Fc1ccc(N=C/C=C/Nc2ccc(F)cc2)cc1` gave a TGI (786-0 renal) of 16.4 µM, a TGI (A498 renal) of 28.8 µM and a TGI (A549 NSCLC) of 21.8 µM. It also gave a TGI (ACHN renal) of 15 µM, a TGI (BT-549 breast) of 27.4 µM and a TGI (CAKI-1 renal) of 28.2 µM. It also gave a TGI (CCRF-CEM leukemia) greater than 51.3 µM, a TGI (COLO 205 colon) of 12.5 µM and a TGI (DU-145 prostate) of 26.7 µM. It also gave a TGI (EKVX NSCLC) of 25.9 µM, a TGI (HCC-2998 colon) of 19.5 µM and a TGI (HCT-116 colon) of 18.9 µM. For the same compound, the TGI (HCT-15 colon) was 15.2 µM, the TGI (HL-60(TB) leukemia) was 10.3 µM and the TGI (HOP-62 NSCLC) was 33 µM. It also gave a TGI (HOP-92 NSCLC) of 33.1 µM, a TGI (HS 578T breast) of 47.2 µM and a TGI (HT29 colon) of 24.2 µM. It also gave a TGI (IGROV1 ovarian) of 26.2 µM, a TGI (K-562 leukemia) of 22.1 µM and a TGI (KM12 colon) of 19.9 µM. For the same compound, the TGI (LOX IMVI melanoma) was 18.5 µM, the TGI (M14 melanoma) was 11.9 µM and the TGI (MALME-3M melanoma) was 30.6 µM. It also gave a TGI (MCF7 breast) of 28.3 µM, a TGI (MDA-MB-231 breast) of 30.1 µM and a TGI (MDA-MB-435) of 20.8 µM. For the same compound, the TGI (MDA-N) was 18.5 µM, the TGI (MOLT-4 leukemia) was 38.5 µM and the TGI (NCI-H226 lung) was 36.2 µM. The TGI (NCI-H23 lung) was 48.4 µM, the TGI (NCI-H460 lung) was 24.7 µM and the TGI (NCI-H522 lung) was 27.6 µM. For the same compound, the TGI (NCI/ADR-RES ovarian) was 26.4 µM, the TGI (OVCAR-3 ovarian) was 31.1 µM and the TGI (OVCAR-4 ovarian) was 29.8 µM. It also gave a TGI (OVCAR-5 ovarian) of 25.3 µM, a TGI (OVCAR-8 ovarian) of 25.9 µM and a TGI (PC-3 prostate) of 22.3 µM. For the same compound, the TGI (RPMI-8226 leukemia) was 52 µM, the TGI (RXF 393 renal) was 30.5 µM and the TGI (SF-268 CNS) was 27.5 µM. For the same compound, the TGI (SF-295 CNS) was 24.2 µM, the TGI (SF-539 CNS) was 27.2 µM and the TGI (SK-MEL-2 melanoma) was 26.7 µM. For the same compound, the TGI (SK-MEL-28 melanoma) was 22 µM, the TGI (SK-MEL-5 melanoma) was 22.3 µM and the TGI (SK-OV-3 ovarian) was 28.8 µM. For the same compound, the TGI (SN12C renal) was 28.3 µM, the TGI (SNB-19 CNS) was 26.9 µM and the TGI (SNB-75 CNS) was 28.4 µM. For the same compound, the TGI (SR leukemia) was 9.17 µM, the TGI (SW-620 colon) was 20.7 µM and the TGI (T-47D breast) was 29.4 µM. For the same compound, the TGI (TK-10 renal) was 4.32 µM, the TGI (U251 CNS) was 20.6 µM and the TGI (UACC-257 melanoma) was 26.8 µM. It also gave a TGI (UACC-62 melanoma) of 16.8 µM and a TGI (UO-31 renal) of 21 µM.
